This is an account of results in US20240076406A1, “SINGLE DOMAIN ANTIBODIES TARGETING CA-IX AS WELL AS COMPOSITIONS COMPRISING SAME” (National Research Council of Canada, priority 2021, published 2024).

The target of test [1] is T1, purified hCA-IX ECD dimer (Homo sapiens, UniProt Q16790).
T1 construct: in vitro enzyme activity assay using purified hCA-IX ECD dimer
Put plainly: In vitro rhCA-IX enzyme activity inhibition (4Mu-Ac hydrolysis). The note with it: [inhibitor] vs. normalized response - variable slope. It counts as biochemical. As to the method: In vitro rhCA-IX enzyme activity inhibition. In order to examine the functional consequence of the binding of the two sdCA9-VHH antibodies to hCA-IX ECD, antibodies were tested in an in vitro enzyme activity assay using purified hCA-IX ECD dimer and 4-Methylumbelliferyl acetate (4Mu-Ac) as substrate.

Test [2] concerns 67NR^hCA-IX derived spheroids. Kind of test: Spheroid growth inhibition, 67NR^hCA-IX. It counts as cell-based, mouse. The note with it: monitored for 8 days; compared with 67NR derived spheroids. From the text:
Spheroid growth inhibition.

The test system of test [3] is SKRC59 and SKRC52 cell lines (low and high levels of hCA-IX). Kind of test: Cell binding assay, plate format. It counts as cell-based, human. The note with it: cell line of Table 3 not stated. As to the method: Cell binding assays were performed using a plate-based format, binding was expressed as the mean fluorescent intensity per cell area. (control IgG (●), cG250 (▪), sdCA9-1-Fc (▴), and sdCA9-2-Fc (▾)). KD values were determined by plotting fluorescent intensity measured for each condition of the sdCA9-Fc antibodies using Graphpad Prism. cG250 full sized antibody (FSA) and isotype matching IgG FSA were used as bench mark and negative control, respectively.
Cell binding. […] These cell lines have been used in the literature for the screening of scFv Abs for binding to hCA-IX (Xu et al. 2010). KD values were determined to be in the low nanomolar range, the clinically used cG250 full sized antibody (FSA) was used as a bench mark. An isotype matching hIgG was used as negative control (FIG. 5).

In the case of `NS(=O)(=O)c1ccc(NC(=O)Nc2ccc(F)cc2)cc1` [Clone U104, reference compound], in test [1], the “HillSlope (best fit value)” value was −0.3305. Further, the “spheroid growth, different concentrations” value in test [2] is listed as “inhibited spheroid growth in a dose-dependent manner”.
Usually Kd stands for the concentration at which binding is half-saturated. Turning to “cG250: clinically used anti-CA-IX full sized antibody (FSA), used as bench mark [reference compound]”, in test [3] (cell binding, text: low nanomolar range, read-out: KD (best-fit value, one site specific binding)), the Kd was determined as 1.29 nM. The “Bmax (best-fit value, one site specific binding)” value in test [3] (mean fluorescent intensity per cell area) is 574.6.
